According to the NIST ThermoML archive (doi:10.1021/acs.jced.5b00691):

Assays:
[1] = for surface tension liquid-gas: surface light scattering; for kinematic viscosity / mass density: Liquid; for kinematic viscosity: Surface laser light scattering (SLLS); for mass density: Vibrating tube method
[2] = xn = mol fraction of the nth substance listed; conditions: for surface tension liquid-gas: surface light scattering; for kinematic viscosity / mass density: Liquid; for kinematic viscosity: Surface Light Scattering; for mass density: Vibrating tube method

COC(F)(C(F)(F)C(F)(F)F)C(F)(C(F)(F)F)C(F)(F)F (stereo not given)
[1]
Conditions	kinematic viscosity [m2/s]	mass density [kg/m3]	surface tension liquid-gas [mN/m]
273.15 K	1.01e-06	1714.26	16.56
278.15 K	–	1702.92	–
283.15 K	8.49e-07	1691.49	15.81
288.15 K	–	1680.02	–
293.15 K	7.37e-07	1668.48	14.97
298.15 K	–	1656.86	–
303.15 K	6.31e-07	1645.14	14.15
308.15 K	–	1633.38	–
313.15 K	5.56e-07	1621.44	13.43
318.15 K	–	1609.41	–
323.15 K	4.92e-07	1597.29	12.61
328.15 K	–	1585.05	–
333.15 K	4.36e-07	1572.65	11.79
338.15 K	–	1560.14	–
343.15 K	3.95e-07	1547.49	11.03
348.15 K	–	1534.67	–
353.15 K	3.52e-07	1521.68	10.16
358.15 K	–	1508.51	–
363.15 K	3.15e-07	1495.16	9.43
373.15 K	2.88e-07	–	8.64

CCOC(F)(C(F)(F)C(F)(F)C(F)(F)F)C(F)(C(F)(F)F)C(F)(F)F (stereo not given) [2-trifluoromethyl-3-ethoxydodecafluorohexane]
[1]
Conditions	kinematic viscosity [m2/s]	mass density [kg/m3]	surface tension liquid-gas [mN/m]
273.15 K	1.14e-06	1670.6	16.92
278.15 K	–	1660.59	–
283.15 K	9.38e-07	1650.49	16.23
288.15 K	–	1640.35	–
293.15 K	8.04e-07	1630.17	15.52
298.15 K	–	1619.92	–
303.15 K	6.91e-07	1609.61	14.75
308.15 K	–	1599.24	–
313.15 K	6.11e-07	1588.77	14.07
318.15 K	–	1578.28	–
323.15 K	5.38e-07	1567.69	13.3
328.15 K	–	1557	–
333.15 K	4.71e-07	1546.2	12.65
338.15 K	–	1535.3	–
343.15 K	4.28e-07	1524.31	11.89
348.15 K	–	1513.21	–
353.15 K	3.88e-07	1501.99	11.13
358.15 K	–	1490.64	–
363.15 K	3.52e-07	1479.16	10.4
373.15 K	3.17e-07	–	9.66

COC(F)(F)C(F)(F)C(F)(F)F [heptafluoropropyl methyl ether]
[1]
Conditions	kinematic viscosity [m2/s]	mass density [kg/m3]	surface tension liquid-gas [mN/m]
273.15 K	4.22e-07	1471.16	14.49
278.15 K	–	1458.15	–
283.15 K	3.65e-07	1444.94	13.31
288.15 K	–	1431.58	–
293.15 K	3.3e-07	1418.04	12.33
298.15 K	–	1404.3	–
303.15 K	2.9e-07	1390.35	11.23
308.15 K	–	1376.15	–
313.15 K	2.64e-07	1361.67	10.27
318.15 K	–	1346.91	–
323.15 K	2.37e-07	1331.89	9.23
328.15 K	–	1316.54	–
333.15 K	2.2e-07	1300.86	8.28
338.15 K	–	1284.82	–
343.15 K	2.01e-07	1268.38	7.36
348.15 K	–	1251.45	–
353.15 K	1.8e-07	1234.05	6.38
358.15 K	–	1216.87	–
363.15 K	1.66e-07	1199.54	5.48
373.15 K	1.53e-07	–	4.62

COC(F)(F)C(F)(C(F)(F)F)C(F)(F)F [methyl nonafluoroisobutyl ether] + COC(F)(F)C(F)(F)C(F)(F)C(F)(F)F
[2], x1 = 0.623
Conditions	kinematic viscosity [m2/s]	mass density [kg/m3]	surface tension liquid-gas [mN/m]
273.15 K	6.64e-07	1579.23	15.82
278.15 K	–	1566.86	–
283.15 K	5.7e-07	1554.37	14.82
288.15 K	–	1541.76	–
293.15 K	4.84e-07	1529.03	13.8
298.15 K	–	1516.15	–
303.15 K	4.28e-07	1503.18	12.89
308.15 K	–	1490.04	–
313.15 K	3.81e-07	1476.74	11.92
318.15 K	–	1463.23	–
323.15 K	3.38e-07	1449.5	11
328.15 K	–	1435.61	–
333.15 K	3.06e-07	1421.48	10.06
338.15 K	–	1407.13	–
343.15 K	2.77e-07	1392.52	9.13
348.15 K	–	1377.65	–
353.15 K	2.46e-07	1362.5	8.16
358.15 K	–	1347.04	–
363.15 K	2.28e-07	1331.24	7.32
373.15 K	2.09e-07	–	6.46

CCOC(F)(F)C(F)(C(F)(F)F)C(F)(F)F [nonafluoroisobutyl ethyl ether] + CCOC(F)(F)C(F)(F)C(F)(F)C(F)(F)F
[2], x1 = 0.613
Conditions	kinematic viscosity [m2/s]	mass density [kg/m3]	surface tension liquid-gas [mN/m]
273.15 K	6.63e-07	1478.05	16.03
278.15 K	–	1467.14	–
283.15 K	5.56e-07	1456.15	14.9
288.15 K	–	1445.07	–
293.15 K	4.82e-07	1433.94	14.01
298.15 K	–	1422.65	–
303.15 K	4.29e-07	1411.31	13.21
308.15 K	–	1399.85	–
313.15 K	3.82e-07	1388.27	12.33
318.15 K	–	1376.56	–
323.15 K	3.43e-07	1364.66	11.42
328.15 K	–	1352.68	–
333.15 K	3.13e-07	1340.45	10.56
338.15 K	–	1328.09	–
343.15 K	2.83e-07	1315.57	9.67
348.15 K	–	1302.85	–
353.15 K	2.56e-07	1289.93	8.84
358.15 K	–	1276.74	–
363.15 K	2.38e-07	1263.25	7.99
373.15 K	2.22e-07	–	7.19
